Reference: ChEMBL document CHEMBL1201862, “PubChem BioAssay data set” (2004)
The source made the active and inactive calls. Cut-off read from the data, not from the text of the source: actives have a measured IC50 and inactives only a lower limit.

Target: Envelope glycoprotein gp160 (Human immunodeficiency virus 1, UniProt Q6QLK5)
Assay: cell-free HIV fusion peptide-binding blockers – biochemical, uHTS, fluorescence dequenching, […] (AID 1986)

Sequence of Envelope glycoprotein gp160 (Q6QLK5 whole entry, the tested form may be a part): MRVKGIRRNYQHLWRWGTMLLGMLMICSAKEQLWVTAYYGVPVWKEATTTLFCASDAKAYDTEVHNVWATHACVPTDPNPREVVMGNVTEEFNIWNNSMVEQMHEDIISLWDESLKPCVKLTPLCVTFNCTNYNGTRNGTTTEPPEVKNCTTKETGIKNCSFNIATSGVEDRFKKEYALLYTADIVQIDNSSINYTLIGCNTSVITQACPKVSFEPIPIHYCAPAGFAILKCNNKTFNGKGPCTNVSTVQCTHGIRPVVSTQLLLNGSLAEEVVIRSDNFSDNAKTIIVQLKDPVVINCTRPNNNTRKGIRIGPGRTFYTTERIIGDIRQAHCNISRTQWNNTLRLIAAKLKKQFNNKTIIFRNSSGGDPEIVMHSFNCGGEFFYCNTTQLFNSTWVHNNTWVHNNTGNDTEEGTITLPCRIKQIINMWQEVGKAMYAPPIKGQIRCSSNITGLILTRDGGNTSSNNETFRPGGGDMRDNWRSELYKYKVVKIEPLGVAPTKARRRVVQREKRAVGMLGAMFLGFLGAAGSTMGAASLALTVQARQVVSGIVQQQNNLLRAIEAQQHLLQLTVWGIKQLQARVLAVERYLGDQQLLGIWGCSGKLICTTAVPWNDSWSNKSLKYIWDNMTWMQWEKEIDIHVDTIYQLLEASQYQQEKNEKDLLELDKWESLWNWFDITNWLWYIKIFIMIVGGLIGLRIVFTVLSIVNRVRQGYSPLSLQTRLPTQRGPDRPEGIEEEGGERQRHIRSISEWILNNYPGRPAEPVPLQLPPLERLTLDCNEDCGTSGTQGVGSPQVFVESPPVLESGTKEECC

**Q.** COc1cc(/C=C2\C(=N)N3N=C(S(C)(=O)=O)SC3=NC2=O)cc(OC)c1OCCOc1ccccc1C was tested. Which IC50 did it give?
**A.** 14.6 µM (active)

**Q.** For Cc1ccc(-n2cccc2/C=C2/C(=N)N3C(=NC2=O)SN=C3S(C)(=O)=O)cc1Cl, which IC50 is on record?
**A.** 6.32 µM (active)

**Q.** For O=C1NN(c2ccc(Cl)c(Cl)c2)C(=O)/C1=C/c1ccc(-c2ccccc2C(=O)O)o1, which IC50 is on record?
**A.** 15.7 µM (active)

**Q.** For O=C(O)c1cccc(NC(=S)N/N=C/c2ccccc2OCc2cccc(Br)c2)c1, which IC50 is on record?
**A.** 13.2 µM (active)
